Laboratory results from the supplement of paper PMC10307832.

Assays:
Assay in all cases: relative viability (nuclei count vs DMSO), 5 days (fraction); higher = more cells survive
[1] = compound: CN[C@@H]1C[C@H]2O[C@@](C)([C@@H]1OC)n1c3ccccc3c3c4c(c5c6ccccc6n2c5c31)C(=O)NC4 [Staurosporine] + O=C(CCCCCCC(=O)Nc1ccccc1)NO [Vorinostat] (partner 1 µM)
In short: (§1)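 Cells from lung cancer lines were seeded into 1536-well plates and, one day later, dosed by pin tool. Treatments were either a single drug or a fixed dose of an anchor drug with five library-drug doses (not always all listed) in √10 steps. After 5 days, nuclei were stained in a one-step fixation (final 0.05% Triton X-100, 1% formaldehyde, 1 ug/ml Hoechst) and counted on 4× images, and relative viability is the treated-to-vehicle nuclei ratio, as the median of duplicate plates.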

[2] = compound: O=c1[nH]cc(F)c(=O)[nH]1 [5-Fluorouracil] + Cc1cc(Nc2cc(N3CCN(C)CC3)nc(Sc3ccc(NC(=O)C4CC4)cc3)n2)n[nH]1 [Tozasertib] (partner 0.1 µM)
In short: as §1

[3] = compound: O=c1[nH]cc(F)c(=O)[nH]1 [5-Fluorouracil] + Cc1nc(Nc2ncc(C(=O)Nc3c(C)cccc3Cl)s2)cc(N2CCN(CCO)CC2)n1 [Dasatinib] (partner 0.075 µM)
In short: as §1

[4] = compound: CN[C@@H]1C[C@H]2O[C@@](C)([C@@H]1OC)n1c3ccccc3c3c4c(c5c6ccccc6n2c5c31)C(=O)NC4 [Staurosporine] + Cc1nc(NC(=O)N2CCC[C@H]2C(N)=O)sc1-c1ccnc(C(C)(C)C(F)(F)F)c1 [Alpelisib] (partner 2 µM)
In short: as §1

In the case of NCI-H2087, the relative viability ([1]; first compound 0.005 µM) is reported as 0.628, the relative viability ([1]; first compound 0.01581 µM) is reported as 0.407 and the relative viability ([1]; first compound 0.05 µM) is reported as 0.354. It also gave a relative viability ([1]; first compound 0.1581 µM) of 0.0753, a relative viability ([1]; first compound 0.5 µM) of 0.0552 and a relative viability ([2]; first compound 0.02 µM) of 0.282. For the same cell line, the relative viability ([2]; first compound 0.2 µM) was 0.236, the relative viability ([2]; first compound 0.6325 µM) was 0.253 and the relative viability ([2]; first compound 2 µM) was 0.156. The relative viability ([3]; first compound 0.02 µM) was 0.917, the relative viability ([3]; first compound 0.2 µM) was 0.835 and the relative viability ([3]; first compound 0.6325 µM) was 0.532. The relative viability ([3]; first compound 2 µM) was 0.483, the relative viability ([4]; first compound 0.005 µM) was 0.875 and the relative viability ([4]; first compound 0.01581 µM) was 0.624. The relative viability ([4]; first compound 0.05 µM) was 0.449, the relative viability ([4]; first compound 0.1581 µM) was 0.118 and the relative viability ([4]; first compound 0.5 µM) was 0.125.

Cell Line NCI-H596 has a relative viability ([1]; first compound 0.005 µM) of 0.59, a relative viability ([1]; first compound 0.01581 µM) of 0.424 and a relative viability ([1]; first compound 0.05 µM) of 0.258. The relative viability ([1]; first compound 0.1581 µM) was 0.192, the relative viability ([1]; first compound 0.5 µM) was 0.126 and the relative viability ([2]; first compound 0.02 µM) was 0.939. The relative viability ([2]; first compound 0.2 µM) was 0.845, the relative viability ([2]; first compound 0.6325 µM) was 0.479 and the relative viability ([2]; first compound 2 µM) was 0.364. The relative viability ([3]; first compound 0.02 µM) was 0.717, the relative viability ([3]; first compound 0.2 µM) was 0.605 and the relative viability ([3]; first compound 0.6325 µM) was 0.48. For the same cell line, the relative viability ([3]; first compound 2 µM) was 0.366, the relative viability ([4]; first compound 0.005 µM) was 0.59 and the relative viability ([4]; first compound 0.01581 µM) was 0.325. It also gave a relative viability ([4]; first compound 0.05 µM) of 0.284, a relative viability ([4]; first compound 0.1581 µM) of 0.174 and a relative viability ([4]; first compound 0.5 µM) of 0.165.

Work on Calu-6 yielded a relative viability ([4]; first compound 0.005 µM) of 0.732, a relative viability ([4]; first compound 0.01581 µM) of 0.612 and a relative viability ([4]; first compound 0.05 µM) of 0.279. For the same cell line, the relative viability ([4]; first compound 0.1581 µM) was 0.104 and the relative viability ([4]; first compound 0.5 µM) was 0.0766.

Cell Line LCLC-103H has a relative viability ([1]; first compound 0.005 µM) of 0.545, a relative viability ([1]; first compound 0.01581 µM) of 0.16 and a relative viability ([1]; first compound 0.05 µM) of 0.251. It also gave a relative viability ([1]; first compound 0.1581 µM) of 0.211, a relative viability ([1]; first compound 0.5 µM) of 0.198 and a relative viability ([2]; first compound 0.02 µM) of 0.536. It also gave a relative viability ([2]; first compound 0.2 µM) of 0.511, a relative viability ([2]; first compound 0.6325 µM) of 0.305 and a relative viability ([2]; first compound 2 µM) of 0.212. For the same cell line, the relative viability ([3]; first compound 0.02 µM) was 0.493, the relative viability ([3]; first compound 0.2 µM) was 0.417 and the relative viability ([3]; first compound 0.6325 µM) was 0.326. The relative viability ([3]; first compound 2 µM) was 0.251, the relative viability ([4]; first compound 0.005 µM) was 1.07 and the relative viability ([4]; first compound 0.01581 µM) was 0.513. The relative viability ([4]; first compound 0.05 µM) was 0.365, the relative viability ([4]; first compound 0.1581 µM) was 0.221 and the relative viability ([4]; first compound 0.5 µM) was 0.178.

HCC-15 was tested, and the relative viability ([1]; first compound 0.005 µM) was 0.811, the relative viability ([1]; first compound 0.05 µM) was 0.485 and the relative viability ([1]; first compound 0.1581 µM) was 0.28. For the same cell line, the relative viability ([1]; first compound 0.5 µM) was 0.213, the relative viability ([2]; first compound 0.02 µM) was 0.396 and the relative viability ([2]; first compound 0.2 µM) was 0.455. For the same cell line, the relative viability ([2]; first compound 0.6325 µM) was 0.43, the relative viability ([2]; first compound 2 µM) was 0.232 and the relative viability ([3]; first compound 0.02 µM) was 0.701. The relative viability ([3]; first compound 0.2 µM) was 0.713, the relative viability ([3]; first compound 0.6325 µM) was 0.417 and the relative viability ([3]; first compound 2 µM) was 0.275. For the same cell line, the relative viability ([4]; first compound 0.005 µM) was 0.887, the relative viability ([4]; first compound 0.05 µM) was 0.64 and the relative viability ([4]; first compound 0.1581 µM) was 0.453. For the same cell line, the relative viability ([4]; first compound 0.5 µM) was 0.262.

With H3255 the relative viability ([1]; first compound 0.005 µM) was 0.276, the relative viability ([1]; first compound 0.01581 µM) was 0.219 and the relative viability ([1]; first compound 0.05 µM) was 0.384. It also gave a relative viability ([1]; first compound 0.1581 µM) of 0.48, a relative viability ([1]; first compound 0.5 µM) of 0.133 and a relative viability ([2]; first compound 0.02 µM) of 0.63. It also gave a relative viability ([2]; first compound 0.2 µM) of 0.663, a relative viability ([2]; first compound 0.6325 µM) of 0.652 and a relative viability ([2]; first compound 2 µM) of 0.497. It also gave a relative viability ([3]; first compound 0.02 µM) of 0.304, a relative viability ([3]; first compound 0.2 µM) of 0.5 and a relative viability ([3]; first compound 0.6325 µM) of 0.328. It also gave a relative viability ([3]; first compound 2 µM) of 0.359, a relative viability ([4]; first compound 0.005 µM) of 0.612 and a relative viability ([4]; first compound 0.01581 µM) of 0.367. For the same cell line, the relative viability ([4]; first compound 0.05 µM) was 0.215, the relative viability ([4]; first compound 0.1581 µM) was 0.174 and the relative viability ([4]; first compound 0.5 µM) was 0.0798.

With NCI-H1915 the relative viability ([1]; first compound 0.005 µM) was 0.452, the relative viability ([1]; first compound 0.01581 µM) was 0.178 and the relative viability ([1]; first compound 0.05 µM) was 0.148. For the same cell line, the relative viability ([1]; first compound 0.1581 µM) was 0.0885, the relative viability ([1]; first compound 0.5 µM) was 0.0702 and the relative viability ([2]; first compound 0.02 µM) was 0.376. It also gave a relative viability ([2]; first compound 0.2 µM) of 0.418, a relative viability ([2]; first compound 0.6325 µM) of 0.433 and a relative viability ([2]; first compound 2 µM) of 0.331. The relative viability ([3]; first compound 0.02 µM) was 0.305, the relative viability ([3]; first compound 0.2 µM) was 0.31 and the relative viability ([3]; first compound 0.6325 µM) was 0.303. For the same cell line, the relative viability ([3]; first compound 2 µM) was 0.266, the relative viability ([4]; first compound 0.005 µM) was 1.11 and the relative viability ([4]; first compound 0.05 µM) was 0.587. For the same cell line, the relative viability ([4]; first compound 0.1581 µM) was 0.445 and the relative viability ([4]; first compound 0.5 µM) was 0.357.

NCI-H1563 was tested, and the relative viability ([3]; first compound 0.02 µM) was 0.396, the relative viability ([3]; first compound 0.2 µM) was 0.517 and the relative viability ([3]; first compound 0.6325 µM) was 0.423. It also gave a relative viability ([3]; first compound 2 µM) of 0.483, a relative viability ([4]; first compound 0.005 µM) of 0.813 and a relative viability ([4]; first compound 0.01581 µM) of 0.57. It also gave a relative viability ([4]; first compound 0.05 µM) of 0.63, a relative viability ([4]; first compound 0.1581 µM) of 0.53 and a relative viability ([4]; first compound 0.5 µM) of 0.489.

With NCI-H650 the relative viability ([1]; first compound 0.005 µM) was 0.32, the relative viability ([1]; first compound 0.01581 µM) was 0.162 and the relative viability ([1]; first compound 0.05 µM) was 0.234. For the same cell line, the relative viability ([1]; first compound 0.1581 µM) was 0.181, the relative viability ([1]; first compound 0.5 µM) was 0.151 and the relative viability ([2]; first compound 0.02 µM) was 0.765. It also gave a relative viability ([2]; first compound 0.2 µM) of 0.384, a relative viability ([2]; first compound 0.6325 µM) of 0.309 and a relative viability ([2]; first compound 2 µM) of 0.257. For the same cell line, the relative viability ([3]; first compound 0.02 µM) was 0.444, the relative viability ([3]; first compound 0.2 µM) was 0.341 and the relative viability ([3]; first compound 0.6325 µM) was 0.287. For the same cell line, the relative viability ([3]; first compound 2 µM) was 0.336, the relative viability ([4]; first compound 0.005 µM) was 0.517 and the relative viability ([4]; first compound 0.01581 µM) was 0.318. For the same cell line, the relative viability ([4]; first compound 0.05 µM) was 0.306, the relative viability ([4]; first compound 0.1581 µM) was 0.288 and the relative viability ([4]; first compound 0.5 µM) was 0.178.

For NCI-H2126, the relative viability ([1]; first compound 0.005 µM) was 0.784, the relative viability ([1]; first compound 0.01581 µM) was 0.201 and the relative viability ([1]; first compound 0.05 µM) was 0.426. The relative viability ([1]; first compound 0.1581 µM) was 0.233, the relative viability ([2]; first compound 0.02 µM) was 0.634 and the relative viability ([2]; first compound 0.2 µM) was 0.392. It also gave a relative viability ([2]; first compound 0.6325 µM) of 0.316, a relative viability ([2]; first compound 2 µM) of 0.281 and a relative viability ([3]; first compound 0.02 µM) of 0.552. The relative viability ([3]; first compound 0.2 µM) was 0.315, the relative viability ([3]; first compound 0.6325 µM) was 0.244 and the relative viability ([3]; first compound 2 µM) was 0.212. For the same cell line, the relative viability ([4]; first compound 0.005 µM) was 0.827, the relative viability ([4]; first compound 0.01581 µM) was 0.636 and the relative viability ([4]; first compound 0.05 µM) was 0.495. It also gave a relative viability ([4]; first compound 0.1581 µM) of 0.426 and a relative viability ([4]; first compound 0.5 µM) of 0.341.
